Data published in publication PMC9635829 (Science Advances, 2022).

Legend:
OdinAK (AdkA1) [1] = biological target: T1, OdinAK (AdkA1) (Candidatus Odinarchaeum yellowstonii, UniProt A0AAF0D2B2); assay: ITC; format: binding
T1 sequence (A0AAF0D2B2 1-198): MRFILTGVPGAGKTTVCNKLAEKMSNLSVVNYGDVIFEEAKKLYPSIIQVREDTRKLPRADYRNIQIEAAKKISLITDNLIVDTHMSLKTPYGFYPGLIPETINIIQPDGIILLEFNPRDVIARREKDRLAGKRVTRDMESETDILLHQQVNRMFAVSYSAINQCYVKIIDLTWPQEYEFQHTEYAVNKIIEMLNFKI

OdinAK (AdkA1) [2] = biological target: T1, OdinAK (AdkA1); assay: […] real-time NMR; format: biochemical; conditions: 65 °C, 1 mM ATP (or other NTP), 300 μM AMP, 5 mM MgCl2, pH 7.0
OdinAK (AdkA1) [3] = biological target: T1, OdinAK (AdkA1); assay: X-ray crystal structure; format: binding; conditions: ATP/AMP-mimicking inhibitor, spans both substrate sites
[4] = biological target: adenylate kinase from Odinarchaeota (OdinAK), wild type (Odinarchaeota); assay: SEC-MALS

| Kd (OdinAK (AdkA1) [1]) [µM] | Compound | other results |
| --- | --- | --- |
| 0.8 ± 0.1 | Nc1ncnc2c1ncn2[C@@H]1O[C@H](COP(=O)(O)OP(=O)(O)O)[C@@H](O)[C@H]1O [ADP] | – |
| – | Nc1ncnc2c1ncn2[C@@H]1O[C@H](COP(=O)(O)O)[C@@H](O)[C@H]1O [AMP] | 31P real-time NMR (OdinAK (AdkA1) [2]): OdinAK can use GTP and all other NTPs as substrate for phosphorylation of AMP |
| 0.3 ± 0.1 | Nc1ncnc2c1ncn2[C@@H]1O[C@H](COP(=O)(O)OP(=O)(O)OP(=O)(O)O)[C@@H](O)[C@H]1O [ATP] | – |
| – | Nc1ncnc2c1ncn2[C@@H]1O[C@H](COP(=O)(O)OP(=O)(O)OP(=O)(O)OP(=O)(O)OP(=O)(O)OC[C@H]2O[C@@H](n3cnc4c(N)ncnc43)[C@H](O)[C@@H]2O)[C@@H](O)[C@H]1O [Ap5A, P^1,P^5-di(adenosine-5′) pentaphosphate] | X-ray crystal structure (OdinAK (AdkA1) [3]): we determined the crystal structure of the enzyme in complex with the tight binding |
| 28.7 ± 7 | Nc1ccn([C@@H]2O[C@H](COP(=O)(O)OP(=O)(O)OP(=O)(O)O)[C@@H](O)[C@H]2O)c(=O)n1 [CTP] | – |
| 7.2 ± 0.6 | Nc1nc2c(ncn2[C@@H]2O[C@H](COP(=O)(O)OP(=O)(O)OP(=O)(O)O)[C@@H](O)[C@H]2O)c(=O)[nH]1 [GTP] | – |
| 4.6 ± 0.5 | O=c1ccn([C@@H]2O[C@H](COP(=O)(O)OP(=O)(O)OP(=O)(O)O)[C@@H](O)[C@H]2O)c(=O)[nH]1 [UTP] | – |
| 24.2 ± 8 | Cc1cn([C@H]2C[C@H](O)[C@@H](COP(=O)(O)OP(=O)(O)OP(=O)(O)O)O2)c(=O)[nH]c1=O [dTTP] | – |
| – | adenylate kinase from Odinarchaeota (OdinAK), wild type (enzyme) | stoichiometry N [4]: 3 |
